Assay results: US20260285853A1, “COMPOUNDS AND METHODS FOR MODULATING SPLICING” (REMIX THERAPEUTICS INC., priority 2023, published 2026)
Read-outs that look alike come from different tables or passages of the source.

Legend:
Format in all cases: cell-based
[1] = test system: SH-SY5Y (human neuroblastoma) cells; test: Cell viability, Cell Titer Glo 2.0 assay; settings: read-out: Viability SHSY5Y.3 GI50
In short: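 SH-SY5Y cells were exposed to serially diluted compounds in IMDM with 10% FBS and 0.1% DMSO for 72 hours at 37° C., 5% CO2. Viability was measured by CellTiter-Glo 2.0 luminescence, with medium-only wells as blank.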

HTT mRNA [2] = test: Splicing RT-qPCR assay (THP), Table 2A
MYB mRNA [3] = test: Gene panel canonical junction qPCR assay, decrease in CJ mRNA, Table 3
In short: (§1)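 Canonical exon-junction (CJ) transcript measured by 5′ nuclease RT-qPCR, normalized to GAPDH, GUSB or PPIA and to DMSO control (2^(−ΔΔCt)). A673 or K562 cells treated 24 h at 37° C with an 11-point 3-fold dilution series, top 10 uM, DMSO ≤0.25%. IC50 from 4-parameter logistic fit of percentage CJ decrease.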

HTT mRNA [4] = test: as above
In short: as §1

MYB mRNA [5] = test: Splicing RT-qPCR assay (THP), Table 2A
[6] = Table 2A (THP), AJ mRNA increase, read-out: HTT AJ (increase in alternative junction mRNA, AC50)
[7] = Table 2A (THP), CJ mRNA decrease, read-out: HTT CJ (decrease in canonical junction mRNA, IC50)
[8] = decrease in canonical junction (CJ) mRNA, gene panel qPCR, Table 3
[9] = Table 2A (THP), AJ mRNA increase, read-out: MYB AJ (increase in alternative junction mRNA, AC50)
[10] = Table 2A (THP), CJ mRNA decrease, read-out: MYB CJ (decrease in canonical junction mRNA, IC50)
[11] = Table 2A, THP, HTT alternative junction (AJ) mRNA, read-out: HTT AJ (AC50, increase in alternative junction mRNA)
[12] = Table 2A, THP, HTT canonical junction (CJ) mRNA, read-out: HTT CJ (IC50, decrease in canonical junction mRNA)
[13] = decrease in CJ mRNA levels, canonical junction qPCR, gene panel
[14] = Table 2A, THP, MYB alternative junction (AJ) mRNA, read-out: MYB AJ (AC50, increase in alternative junction mRNA)
[15] = Table 2A, THP, MYB canonical junction (CJ) mRNA, read-out: MYB CJ (IC50, decrease in canonical junction mRNA)

Compound | GI50 [1] | IC50 (HTT mRNA [2]; [7]) | IC50 (MYB mRNA [3]; [8]) | IC50 (HTT mRNA [4]; [8]) | IC50 (MYB mRNA [5]; [10]) | IC50 (HTT mRNA [2]; [12]) | IC50 (MYB mRNA [3]; [13]) | IC50 (HTT mRNA [4]; [13]) | IC50 (MYB mRNA [5]; [15]) | AC50 (HTT mRNA [2]; [6]) | AC50 (MYB mRNA [5]; [9]) | AC50 (HTT mRNA [2]; [11]) | AC50 (MYB mRNA [5]; [14])
Cc1cn2cc(NC(=O)c3c(F)cc(N4CCC(NC5CC5)CC4)c4cn(C)nc34)c(OCC3CC3)c(F)c2n1 [Compound 321, 4-[4-(cyclopropylamino)-1-piperidyl]-N-[7-(cyclopropylmethoxy)-8-fluoro-2-methyl-imidazo[1,2-a]-pyridin-6-yl]-6-fluoro-2-methyl-indazole-7-carboxamide] | < 100 nM | 100 to 1000 nM | < 100 nM | 100 to 1000 nM | < 100 nM | – | – | – | – | < 100 nM | < 100 nM | – | –
CCNC1CCN(c2cc(F)c(C(=O)Nc3cn4cc(C#N)nc(C)c4n3)c3nn(C)cc23)CC1 [Compound 359, N-(6-cyano-8-methyl-imidazo-[1,2-a]pyrazin-2-yl)-4-[4-(ethylamino)-1-piperidyl]-6-fluoro-2-methyl-indazole-7-carboxamide] | 100 to 1000 nM | 100 to 1000 nM | 100 to 1000 nM | 100 to 1000 nM | 100 to 1000 nM | – | – | – | – | 100 to 1000 nM | 100 to 1000 nM | – | –
COc1cc2nn(C)cc2cc1NC(=O)c1ccc(N2CCC3NCCC3C2)c2cn(C)nc12 (stereo not drawn) [Compound 543] | 1000 to 10000 nM | 1000 to 10000 nM | 100 to 1000 nM | 1000 to 10000 nM | 100 to 1000 nM | – | – | – | – | 1000 to 10000 nM | 100 to 1000 nM | – | –
COc1nc2c(C(=O)Nc3ccc4c(c3)OCCO4)ccc(N3C[C@H](C)N[C@@H](C)C3)c2s1 [Compound 716, N-(2,3-dihydro-1,4-benzodioxin-6-yl)-7-[(3S,5S)-3,5-dimethylpiperazin-1-yl]-2-methoxy-1,3-benzothiazole-4-carboxamide] | 1000 to 10000 nM | – | – | – | – | 1000 to 10000 nM | 1000 to 10000 nM | 1000 to 10000 nM | 1000 to 10000 nM | – | – | > 10000 nM | 1000 to 10000 nM
COc1nc2c(C(=O)Nc3ccc4nn(C)cc4n3)ccc(N3C[C@H](C)N[C@@H](C)C3)c2s1 [Compound 714, 7-[(3S,5S)-3,5-dimethylpiperazin-1-yl]-2-methoxy-N-(2-methylpyrazolo[4,3-b]pyridin-5-yl)-1,3-benzothiazole-4-carboxamide] | < 100 nM | – | – | – | – | 100 to 1000 nM | < 100 nM | 100 to 1000 nM | < 100 nM | – | – | 100 to 1000 nM | < 100 nM
COc1nc2c(C(=O)Nc3cc(F)c4nn(C)cc4c3)ccc(N3CC[C@H](NC(C)(C)C)C3)c2s1 [Compound 770] | 100 to 1000 nM | – | – | – | – | 100 to 1000 nM | 100 to 1000 nM | 100 to 1000 nM | 100 to 1000 nM | – | – | 100 to 1000 nM | 100 to 1000 nM
CNC1CCC(Oc2ccc(C(=O)Nc3cn4cc(C)nc(C)c4n3)c3nn(C)cc23)CC1 (stereo not drawn) [Compound 592] | 1000 to 10000 nM | 1000 to 10000 nM | 1000 to 10000 nM | 1000 to 10000 nM | 1000 to 10000 nM | – | – | – | – | 1000 to 10000 nM | 1000 to 10000 nM | – | –
Cn1cc2c(N3CCC(NC4CC4)CC3)cc(F)c(C(=O)Nc3cc4cn(C)nc4n(C)c3=O)c2n1 [Compound 426, 4-[4-(cyclopropylamino)-1-piperidy1]-N-(2,7-dimethyl-6-oxo-pyrazolo[3,4-b]pyridin-5-y1)-6-fluoro-2-methyl-indazole-7-carboxamide] | 1000 to 10000 nM | 1000 to 10000 nM | 100 to 1000 nM | 1000 to 10000 nM | 100 to 1000 nM | – | – | – | – | 1000 to 10000 nM | 100 to 1000 nM | – | –
COc1nc2c(C(=O)Nc3cc4c(C)nc(C)cn4n3)ccc(N3C[C@H](C)N[C@@H](C)C3)c2s1 [Compound 710, 7-[(3S,5S)-3,5-dimethylpiperazin-1-yl]-N-(4,6-dimethylpyrazolo[1,5-a]pyrazin-2-yl)-2-methoxy-1,3-benzothiazole-4-carboxamide] | 1000 to 10000 nM | – | – | – | – | 1000 to 10000 nM | 1000 to 10000 nM | 1000 to 10000 nM | 1000 to 10000 nM | – | – | 1000 to 10000 nM | 1000 to 10000 nM
CCNC1CCN(c2cc(F)c(C(=O)Nc3cn4cc(C)nc(CC)c4n3)c3nn(C)cc23)CC1 [Compound 362, 4-[4-(ethylamino)-1-piperidyl]-N-(8-ethyl-6-methyl-imidazo[1,2-a]pyrazin-2-yl)-6-fluoro-2-methyl-indazole-7-carboxamide] | 1000 to 10000 nM | > 10000 nM | 100 to 1000 nM | > 10000 nM | 100 to 1000 nM | – | – | – | – | > 10000 nM | < 100 nM | – | –
COc1cc2nn(C)cc2cc1NC(=O)c1ccc(N2CCC3(CCCN3)C2)c2cn(C)nc12 (stereo not drawn) [Compound 512] | 1000 to 10000 nM | > 10000 nM | 1000 to 10000 nM | > 10000 nM | 1000 to 10000 nM | – | – | – | – | > 10000 nM | 100 to 1000 nM | – | –
Cc1cn2cc(NC(=O)c3ccc(N4CCC(NC5CC5)CC4)c4cn(C)nc34)nc2c(Cc2cnc(Cl)s2)n1 [Compound 781] | 1000 to 10000 nM | – | – | – | – | > 10000 nM | > 10000 nM | > 10000 nM | > 10000 nM | – | – | > 10000 nM | > 10000 nM
COc1c(NC(=O)c2c(F)cc(N3CC[C@@H](NC4CC4)C4(CC4)C3)c3cn(C)nc23)cn2cc(C)nc2c1F [Compound 368, 4-[(8R)-8-(cyclopropylamino)-5-azaspiro[2.5]octan-5-yl]-6-fluoro-N-(8-fluoro-7-methoxy-2-methyl-imidazo[1,2-a]pyridin-6-yl)-2-methyl-indazole-7-carboxamide] | 100 to 1000 nM | 1000 to 10000 nM | < 100 nM | 1000 to 10000 nM | < 100 nM | – | – | – | – | 1000 to 10000 nM | < 100 nM | – | –
COc1cc2c(N3C[C@H](C)N[C@@H](C)C3)ccc(C(=O)Nc3cc(F)c4nn(C)cc4c3)n2n1 [Compound 697, 4-[(3S,5S)-3,5-dimethylpiperazin-1-yl]-N-(7-fluoro-2-methyl-indazol-5-yl)-2-methoxy-pyrazolo[1,5-a]pyridine-7-carboxamide] | < 100 nM | – | – | – | – | 100 to 1000 nM | < 100 nM | 100 to 1000 nM | < 100 nM | – | – | < 100 nM | < 100 nM

The next lines start with results.

GI50 [1] | IC50 (HTT mRNA [2]; [7]) | IC50 (MYB mRNA [3]; [8]) | IC50 (HTT mRNA [4]; [8]) | IC50 (MYB mRNA [5]; [10]) | IC50 (HTT mRNA [2]; [12]) | IC50 (MYB mRNA [3]; [13]) | IC50 (HTT mRNA [4]; [13]) | IC50 (MYB mRNA [5]; [15]) | Compound | AC50 (HTT mRNA [2]; [6]) | AC50 (MYB mRNA [5]; [9]) | AC50 (HTT mRNA [2]; [11]) | AC50 (MYB mRNA [5]; [14])
1000 to 10000 nM | 1000 to 10000 nM | 1000 to 10000 nM | 1000 to 10000 nM | 1000 to 10000 nM | – | – | – | – | Cc1cn2cc(NC(=O)c3ccc(N4CC5CNCC5C4)c4cn(C)nc34)nc2c(C)n1 (stereo not drawn) [Compound 526] | 1000 to 10000 nM | 1000 to 10000 nM | – | –
1000 to 10000 nM | – | – | – | – | > 10000 nM | > 10000 nM | > 10000 nM | > 10000 nM | Cc1cn2cc(NC(=O)c3ccc(N4CCC(NC5CC5)CC4)c4cn(C)nc34)nc2c(CC2CCOC2)n1 (stereo not drawn) [Compound 722, 4-[4-(cyclopropylamino)-1-piperidyl]-2-methyl-N-[6-methyl-8-(tetrahydrofuran-3-ylmethyl)imidazo[1,2-a]pyrazin-2-yl]indazole-7-carboxamide 2,2,2-trifluoroacetate] | – | – | > 10000 nM | > 10000 nM
> 10000 nM | – | – | – | – | > 10000 nM | 1000 to 10000 nM | > 10000 nM | 1000 to 10000 nM | Cc1cn2cc(NC(=O)c3ccc(N4CCC(NC5CC5)CC4)c4c3OCO4)cc(F)c2n1 [Compound 648, 7-[4-(cyclopropylamino)-1-piperidyl]-N-(8-fluoro-2-methyl-imidazo[1,2-a]pyridin-6-yl)-1,3-benzodioxole-4-carboxamide] | – | – | > 10000 nM | 1000 to 10000 nM
1000 to 10000 nM | – | – | – | – | 1000 to 10000 nM | > 10000 nM | 1000 to 10000 nM | > 10000 nM | COc1nc2c(C(=O)Nc3ccc4nn(C)cc4c3OC)ccc(N3C[C@H](C)N[C@@H](C)C3)c2s1 [Compound 729, 7-[(3S,5S)-3,5-dimethylpiperazin-1-yl]-2-methoxy-N-(4-methoxy-2-methyl-indazol-5-yl)-1,3-benzothiazole-4-carboxamide] | – | – | > 10000 nM | > 10000 nM
1000 to 10000 nM | – | – | – | – | 1000 to 10000 nM | 1000 to 10000 nM | 1000 to 10000 nM | 1000 to 10000 nM | CCNC1CCN(c2ccc(C(=O)Nc3cn4cc(C)nc(CC(=O)N(C)C)c4n3)c3nn(C)cc23)CC1 [Compound 856] | – | – | 1000 to 10000 nM | 1000 to 10000 nM
> 10000 nM | – | – | – | – | > 10000 nM | 1000 to 10000 nM | > 10000 nM | 1000 to 10000 nM | Cn1cc2cc(NC(=O)c3ccc(N4CCC(NC5CC5)CC4)c4cn(C)nc34)cc(CNC(=N)N)c2n1 [Compound 871] | – | – | > 10000 nM | 1000 to 10000 nM
1000 to 10000 nM | – | 100 to 1000 nM | > 10000 nM | – | > 10000 nM | – | – | 100 to 1000 nM | CCNC1CCN(c2ccc(C(=O)Nc3cc4cn(C)nc4cc3OC)c3nn(C)cc23)CC1C (stereo not drawn) [Compound 605] | – | – | 1000 to 10000 nM | 100 to 1000 nM
